Results reported in ChEMBL document CHEMBL3507680, “University of Dundee, Gates Library screen for HepG2 cell viability”.

Test: Human HepG2 cell viability assay in 384 well format
Format: toxicity, cell-based
Parameters: dose 125 nL, time 70.5 hour; cytotoxicity at 70.5 h: concentration not given beside the values
Settings: HepG2 cells, read-out: Inhibition

SMILES | cytotoxicity at 70.5 h [%]
Cc1noc(C(C)C)c1C(=O)NCC(c1ccccc1)N(C)C (stereo unspecified) | -8.37
OC(CN1CCC(c2ccn[nH]2)CC1)c1ccccc1F (stereo unspecified) | -4.73
Cc1ccnn1-c1ccc(C(=O)N2CCCC(n3ccnc3)C2)cc1 (stereo unspecified) | -7.39
CC(C)c1n[nH]c(C(=O)NC(C)c2ccncc2)c1Br (stereo unspecified) | -2.63
CN1CC(C(=O)Nc2ccc(OCC(F)(F)C(F)F)nc2)CC1=O (stereo unspecified) | -7.73
Cc1cccc(NC(=O)c2[nH]nc(C(C)C)c2Br)n1 | 23.8
O=C(CCc1ccsc1)N1CCCC(n2cncn2)C1 (stereo unspecified) | -11.8
COc1ccc(CCC(=O)N2CCCC(n3cncn3)C2)cc1 (stereo unspecified) | -7.91
CS(=O)(=O)c1ccc(C(=O)N2CCCC(n3ccnc3)C2)cc1 (stereo unspecified) | -10.2
N#Cc1ccc(CCC(=O)N2CCCC(n3cncn3)C2)cc1 (stereo unspecified) | -8.59
Cc1cc(C2CCCN(CCCS(N)(=O)=O)C2)n[nH]1 (stereo unspecified) | -5.94
Cc1cc(NC(=O)NCC(c2ccc(C)o2)N2CCOCC2)n(C)n1 (stereo unspecified) | 21
Cc1[nH]ncc1C(=O)N1CCCC1c1noc(C2CC2)n1 (stereo unspecified) | 19.4
Cc1cnn(CC2CCCN2Cc2nc(C)c3ccccc3n2)c1 (stereo unspecified) | 1.46
CCN1CCN(C(=O)c2cccn2Cc2ccccc2)CC1 | -0.982
Cc1cnn(CC2CCCCN2Cc2nc(C)c3ccccc3n2)c1 (stereo unspecified) | -1.81
Cc1cnn(CC2CCCN2Cc2nc3ccccc3c(=O)[nH]2)c1 (stereo unspecified) | -7.22
Fc1cccc(-n2ccc(CN3CCCC3Cn3cncn3)n2)c1 (stereo unspecified) | -9.03
Cc1cnn(CC2CCCN2C(=O)c2n[nH]c3ccccc23)c1 (stereo unspecified) | -6.9
Cc1cccc(C(=O)N2CCCC(c3noc(C)n3)C2)n1 (stereo unspecified) | -1.99
CCc1c(C(=O)NCC2CCS(=O)(=O)C2)cnn1-c1ccccc1 (stereo unspecified) | -4.41
CC(=O)N1CCN(C(=O)CCCc2nnc(-c3ccccc3)o2)CC1 | -2.32
Cc1ccc(-n2ncc(C(=O)NCC3CCS(=O)(=O)C3)c2C)cc1 (stereo unspecified) | -4.72
Cc1cc(CN2CCN(C(=O)NCc3ccco3)CC2)no1 | 18.9

SMILES | cytotoxicity at 70.5 h [%]
CCc1ccc(CNC(=O)N2CCN(Cc3cc(C)on3)CC2)s1 | -4.93
CC(C)c1nc(CN2CCC(c3ccnn3CCO)CC2)no1 | 19.5
OCCn1nccc1C1CCN(Cc2nc(C3CC3)no2)CC1 | -1.33
O=C(CCc1nnc(-c2ccccc2)o1)N1CCN(CC2CC2)CC1 | 1.86
O=C(Cc1n[nH]c2ccccc12)N1CCCC1Cn1cccn1 (stereo unspecified) | 0.964
Fc1cccc(-c2nc(CN3CCCC(Cn4cncn4)C3)co2)c1 (stereo unspecified) | 16.1
Cc1nsc2ncc(C(=O)N3CCCC3c3cnn(C)c3)cc12 (stereo unspecified) | -0.553
O=c1[nH]c(CCN2CCCCC2Cn2cccn2)nc2ccccc12 (stereo unspecified) | -1.7
CCc1nc(C2CCCN(C(=O)c3cc(C(C)C)[nH]n3)C2)no1 (stereo unspecified) | -3.59
Cc1nccn1CC1CCCN1S(=O)(=O)Cc1ccc(F)cc1 (stereo unspecified) | -0.149
Cc1nc(C2CCCN(C(=O)c3ccc(N4CCCC4)nn3)C2)no1 (stereo unspecified) | 0.493
Cc1nc(C2CCCN(C(=O)c3ccc(Cl)cn3)C2)no1 (stereo unspecified) | -5.54
Cc1cc(C(=O)N2CCCC2c2noc(C)n2)[nH]n1 (stereo unspecified) | 1.6
Cn1cc(C(=O)N2CCCC2c2noc(C3CC3)n2)c2ccccc21 (stereo unspecified) | -3.41
c1ccc(Cn2cc(CNCC3CNc4ccnn4C3)cn2)cc1 (stereo unspecified) | 32.4
Cc1cccc(-c2nc(CN3CCc4cncnc4C3)no2)c1 | -4.67
O=C(c1ccn(-c2cccc(Cl)c2)n1)N1CCN(CCO)CC1 | 0.676
CC(=O)Nc1nc(C(=O)N2CCCC2c2noc(C3CC3)n2)cs1 (stereo unspecified) | -3.64
c1cc(CNCC2CNc3ccnn3C2)cc(Cn2cccn2)c1 (stereo unspecified) | 4.46
CCc1nc(C2CCCN2C(=O)c2csc(NC(C)=O)n2)no1 (stereo unspecified) | -1.48
CC(C)Oc1ncccc1CNC(=O)N1CCCC1c1ccsc1 (stereo unspecified) | -0.144
Cc1ncsc1C(=O)NC1CCN(Cc2ccc(C(N)=O)cc2)CC1 | 1.08
Cc1cc2n(n1)CC(CNCc1ccccc1Cn1cccn1)CN2 (stereo unspecified) | 4.35
OCc1ccccc1CNCC1CNc2ccnn2C1 (stereo unspecified) | -1.22

SMILES | cytotoxicity at 70.5 h [%]
N#Cc1ccc(OCCN2CCc3cncnc3C2)cc1 | 0.4
Cc1nnc2n1CCN(CCS(=O)(=O)c1ccc(Cl)cc1)C2 | 2.97
CC(C)(O)CN1CCN(C(=O)c2cccc(CC#N)c2)CC1 | 1.57
CC(C)c1nnc(CN2CCN(CC(O)c3ccccc3)CC2)o1 (stereo unspecified) | -0.811
O=C(c1cc2cc(F)ccc2[nH]1)N1CCCCC1Cn1cccn1 (stereo unspecified) | -0.801
CC(O)CN1CCN(C(=O)c2ccn(-c3ccc(F)cc3)n2)CC1 (stereo unspecified) | -3.45
CC(C)c1nnc2n1CCN(CCS(=O)(=O)c1ccccc1)C2 | -2.01
CC(C)(C(N)=O)N1CCN(C(=O)c2ccn(-c3cccc(Cl)c3)n2)CC1 | -0.38
Cc1cc(NC(=O)CN2CCc3cnc(C(C)C)nc3C2)on1 | -1.61
Cc1ccc(-c2nc(CN3CCc4cnc(C)nc4C3)no2)cc1 | 0.992
CCc1nc(CN2CCN(C(=O)N3CCCCC3)CC2)cs1 | 21.4
CCOC(C)C(=O)N1CCCN(Cc2csc(CC)n2)CC1 (stereo unspecified) | 22.4
CCc1nc(CN2CCCN(C(=O)CC(C)OC)CC2)cs1 (stereo unspecified) | 51.7
CN(Cc1cccnc1)C(=O)NC1CCN(Cc2ccccn2)CC1 | 0.886
CC(c1ccc(F)cc1F)N1CCN(Cc2nccn2C)CC1 (stereo unspecified) | -0.0589
CC(C)n1ccc(CN2CCOC(CNc3cccnn3)C2)n1 (stereo unspecified) | 3.22
CC(C)(C)c1noc(CCCC(=O)NCC2CCS(=O)(=O)C2)n1 (stereo unspecified) | 0.495
CC(C)c1noc(CCC(=O)NCC2CC2)n1 | 23.5
N#Cc1ccc(N2CCN(C(=O)c3cc(C4CC4)[nH]n3)CC2)c(F)c1 | -8.69
Cc1ccc(-n2nnc(C(=O)Nc3cc(C)nn3C)c2C2CC2)cc1 | 0.219
Cc1c(C(=O)N2CCCC2c2cnn(C)c2)nnn1-c1ccccc1 (stereo unspecified) | -7.15
Cc1ccc(-n2nnc(C(=O)NS(C)(=O)=O)c2C2CC2)cc1 | -9
COc1ncccc1CNC(=O)NC1CCOc2ccccc21 (stereo unspecified) | -13.3
Cc1nc2cc(C(=O)N3CCCC(n4cncn4)C3)ccc2n1C (stereo unspecified) | 22.7

SMILES | cytotoxicity at 70.5 h [%]
Cc1cc(C)cc(OCCC(=O)N2CCCC(n3cncn3)C2)c1 (stereo unspecified) | -15.5
COc1cc(C(=O)NS(=O)(=O)c2cccc(C#N)c2)cc(Cl)c1OC | -8.04
Cc1cnc(CN2CCCC(c3cc(C(N)=O)[nH]n3)C2)o1 (stereo unspecified) | 9.27
CCc1[nH]ncc1C(=O)N1CCCN(Cc2cnn(C(C)C)c2)CC1 | 6.52
CCN(Cc1ccc2c(c1)OCO2)Cc1nc(C)no1 | -20.4
CC1COCCN1Cc1nc(-c2cccs2)no1 (stereo unspecified) | -31
CC(C)(NCC(=O)NCC(F)(F)F)c1ccc2c(c1)OCCO2 | -16.8
CC(C)(C)NC(=O)NC(=O)CNC(C)(C)c1ccc2c(c1)OCCO2 | -16.2
CC(C)(C)c1nnc(CN2CCCC(c3cc(C(N)=O)[nH]n3)C2)o1 (stereo unspecified) | 10.9
COc1cccc2cc(CNCc3ccnc(N4CCOCC4)c3)oc12 | 11.7
Cn1ccc(C(=O)NC2CCN(c3ncccn3)CC2)cc1=O | -15.3
COc1ccc(-c2noc(CN3CCOCC3C)n2)cc1OC (stereo unspecified) | -10.5
COc1ccc(CNCc2ccnc(N3CCOCC3)c2)c(OC)c1 | -10.2
CC(C)(C)C(=O)NS(=O)(=O)c1ccc(C#N)cc1C(F)(F)F | -14.8
CCc1nccn1C1CCCN(C(=O)CCc2nccs2)C1 (stereo unspecified) | -15.8
COc1ccccc1N1CCC(CNCc2cccc(O)c2)C1 (stereo unspecified) | 8.44
Cc1nn(C)c(Cl)c1C1CCCN1C(=O)c1cc[nH]n1 (stereo unspecified) | -13
Cc1nn(C)c(Cl)c1C1CCCN1C(=O)c1ccc2nncn2c1 (stereo unspecified) | 5.97
CC(NCc1ccccc1Br)c1ccc2[nH]c(=O)[nH]c2c1 (stereo unspecified) | 3.35
c1cnnc(N2CCCC(NCc3nnc(-c4ccco4)o3)C2)c1 (stereo unspecified) | 3.16
CN(C)c1cc(CNC(=O)Nc2ccc(F)cc2)ccn1 | 12.6
COc1ncccc1CNC(=O)c1cccc(C)n1 | 11.1
CC1CCCN(C(=O)c2cccc(CS(C)(=O)=O)c2)C1 (stereo unspecified) | 7.89
COc1ncccc1NC(=O)c1cccc(C)n1 | -7.22

SMILES | cytotoxicity at 70.5 h [%]
COc1ccc(CNCc2ccc(N3CCCCC3)nc2)cc1OC | -4.42
CCC(NC(=O)c1ccco1)c1ccccc1OCC(=O)N1CCCC1 (stereo unspecified) | -6.16
CCC(NC(=O)CC(F)(F)F)c1ccccc1OCC(=O)N1CCCC1 (stereo unspecified) | -7.99
COc1ncccc1CNC(=O)c1cccnc1O | -8.53
CCOC1CCCN(C(=O)c2sccc2-n2cnnn2)C1 (stereo unspecified) | -2.74
O=C(O)c1cc(S(=O)(=O)N2CCOc3ccccc32)ccc1F | 0.682
Cc1nn(C)c(N(C)C)c1CNCCCN(C)S(C)(=O)=O | -6.18
CS(=O)(=O)Cc1cccc(C(=O)N2CCCC(n3cccn3)C2)c1 (stereo unspecified) | 17.8
c1csc(-c2nc(CNC3CCc4ncnn4C3)cs2)c1 (stereo unspecified) | -16.5
c1nc2n(n1)CC(NCc1csc(-c3ccsc3)n1)CC2 (stereo unspecified) | -17.5
CCc1nnc2n1CCN(Cc1nc(-c3ccoc3)no1)C2 | -7.66
CN(C)c1cc(C(=O)N2CCCC(n3cccn3)C2)ccn1 (stereo unspecified) | -11.4
O=C(NCCOc1ccc(Cl)cc1)N1CCS(=O)(=O)CC1 | 9.92
Cc1ccc2oc(C(=O)N3CCC(C(=O)N4CCCC4)CC3)cc2n1 | -14.6
Cc1c(F)cc(C(=O)O)cc1S(=O)(=O)Nc1cccc(C(F)F)c1 | -10.3
Cc1cc(C)c(OCC(=O)NS(=O)(=O)c2c(C)noc2C)c(C)c1 | 12.1
COCc1nc(C(=O)NS(=O)(=O)c2cc(F)ccc2F)cs1 | 20.7
O=C(CN1CCCS1(=O)=O)NCCOc1ccc2c(c1)CCC2 | 5.58
Cc1cc(CNc2cc(Cl)ccc2OCCS(C)(=O)=O)no1 | 13.3
Cc1n[nH]c(C)c1C1COCCN1C(=O)c1cc(Cl)c[nH]1 (stereo unspecified) | -5.39
